US20190015312A1, “COSMETIC FORMULATIONS” (KIMBERLY-CLARK WORLDWIDE, INC., priority 2015, published 2019)

What follows are substances tested on volunteer human subjects (assay: Human clinical anti-perspirant study, gravimetric perspiration on lower back). Settings: Table D study; Acetyl Hexapeptide-30 and Pentapeptide-18 tested in combination.
Type: in vivo
Protocol: The effectiveness of the peptide material at addressing perspiration was evaluated in a human clinical study. The screening of various potential sweat-reducing materials was determined using at least 20 volunteer human subjects. Twenty-four subjects were planned for enrollment into the study to ensure that 20 subjects completed testing. Baseline screening was performed on up to 40 subjects to ensure a sufficient number of subjects were enrolled in the treatment application phase who met minimum sweat production criteria of 50 mg over a 20-minute collection period. As shown in Table C and Table D, each subject had seven test materials randomly applied to the lower back in 2 inch by 2 inch treatment application areas and one site was left untreated on each subject as a control. The study subjects participated in a 4-day test period consisting of four, supervised treatment applications, spaced 24-hours apart, and one post treatment application sweat collection period 1-hour post-product application on Day 4. The study staff visually assessed the application sites, and applied each of the test materials to the backs of the subjects. […] Subjects were instructed to not leave the room during the approximately 60-minute test period. • Absorbent gauze sponges, 2 inch by 2 inch (two 4-ply sponges, Avant Gauze® Sponges), were applied to the eight sites on the lower back of the subjects. Sponges were occluded on the site using 3MTM BlendermTM Medical Tape, and affixed to the site using Scanpor® Paper Tape. • The sponges remained in place for a 20-minute acclimation period. […] Subjects were not allowed to consume water during this 20-minute period. • Following the 20-minute period, the sponges with the 3MTM BlendermTM Medical Tape were removed and sealed in a bag or container for weighing within 1-hour of removal. • After exiting the temperature-controlled room, the subjects again sat in normal ambient indoor temperature for at least 20-minutes, and trained technicians determined the body temperature, pulse, and blood pressure of each subject. […]

Row | Substance | Activity of the peptide in the presence of a salt based cosmetic astringent, in words
1 | Pentapeptide-18 | high activity
2 | Acetyl Hexapeptide-30 | high activity
3 | Acetyl Dipeptide-1 Cetyl Ester | high activity
